From patent EP1614683B1, “Indazole compounds and pharmaceutical compositions for inhibiting protein kinases, and methods for their use” (priority 1999, dated 2001) come the findings set out here.

Usually pKi stands for −log10 of the Ki, conventionally taken in molar units. The inhibition is the change of the read-out against control, counted positive when it falls. What is called AUC is the area under the concentration-time curve, a measure of exposure. Lower therefore signals low exposure. As usually defined, the pIC50 is the negative decadic logarithm of the IC50, by convention in mol/L.

One series has as its target T1, human CHK1 (FL-CHK1) (Homo sapiens, UniProt O14757).
T1 construct: C-terminally His-tagged full-length human CHK1 (FL-CHK1) was expressed using the baculovirus/insect cell system; made in house; host or cells: baculovirus/insect cell system
T1 sequence (O14757 1-476): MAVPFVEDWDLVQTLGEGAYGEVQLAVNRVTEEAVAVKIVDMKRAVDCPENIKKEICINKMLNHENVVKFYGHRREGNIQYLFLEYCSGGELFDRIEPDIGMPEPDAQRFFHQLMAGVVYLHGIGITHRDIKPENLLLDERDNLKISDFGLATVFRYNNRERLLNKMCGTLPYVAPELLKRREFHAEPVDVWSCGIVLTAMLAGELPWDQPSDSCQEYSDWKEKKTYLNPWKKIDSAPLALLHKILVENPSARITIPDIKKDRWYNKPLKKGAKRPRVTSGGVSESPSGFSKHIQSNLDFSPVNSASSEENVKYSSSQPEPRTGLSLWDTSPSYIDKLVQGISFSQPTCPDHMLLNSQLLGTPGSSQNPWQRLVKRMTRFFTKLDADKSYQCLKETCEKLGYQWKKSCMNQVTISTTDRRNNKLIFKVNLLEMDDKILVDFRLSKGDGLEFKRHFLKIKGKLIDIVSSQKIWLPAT
The series is described as follows: CHK1 coupled spectrophotometric assay. It counts as biochemical. The text has this:
CHK1 Construct for Assay: C-terminally His-tagged full-length human CHK1 (FL-CHK1) was expressed using the baculovirus/insect cell system. […] The protein was purified by conventional chromatographic techniques.
The production of ADP from ATP that accompanies phosphoryl transfer to the synthetic substrate peptide Syntide-2 ([…]) was coupled to oxidation of NADH using phosphoenolpyruvate (PEP) through the actions of pyruvate kinase (PK) and lactic dehydrogenase (LDH). The oxidation of NADH was monitored by following the decrease of absorbance at 340 nm (∈340 = 6.22 cm^-1 mM^-1) using a HP8452 spectrophotometer. […] Assays were initiated with 10 nM of FL-CHK1. Ki values were determined by measuring initial enzyme activity in the presence of varying concentrations of test compounds. The data were analyzed using Enzyme Kinetic and Kaleidagraph software.

A short description of another series: in vivo. As to conditions: mouse, plasma, pH 2.3.
For another series, the target named is human FGF-R1 (Homo sapiens, UniProt P11362, C488A/C584S/L457V). The series is described as follows: FGF-R spectrophotometric assay. It counts as biochemical. The procedure:
The spectrophotometric assay was carried out as described above for VEGF-R2, except for the following changes in concentration: FGF-R = 50 nM, ATP = 2 mM, and poly(E4Y1) =15 mM.

A short description of a further series: in vitro. It counts as in vitro ADME, human. As to conditions: human liver microsomes, 5 µM test compound, 37 °C, 2 h. The procedure, abridged:
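HLM diluted to 5 mg/mL in 100 mM KPO4, preincubated 10 min at 37 °C with NADPH-regenerating system. Compound (5 µM final) incubated at 37 °C in triplicate, sampled at 0 and 2 h into ice-cold acetonitrile, then LC-MS analysis.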

The target of the next series is LCK tyrosine kinase (Homo sapiens, UniProt P06239, C224D/P223M). The series is described as follows: LCK spectrophotometric assay. In kind it is biochemical. The procedure: The spectrophotometric assay was carried out as described above for VEGF-R2, except for the following changes in concentration: LCK = 60 nM, MgCl2 = 0 mM, poly(E4Y1) = 20 mM.
LCK tyrosine kinase, sequence (P06239 223-509 P223M/C224D): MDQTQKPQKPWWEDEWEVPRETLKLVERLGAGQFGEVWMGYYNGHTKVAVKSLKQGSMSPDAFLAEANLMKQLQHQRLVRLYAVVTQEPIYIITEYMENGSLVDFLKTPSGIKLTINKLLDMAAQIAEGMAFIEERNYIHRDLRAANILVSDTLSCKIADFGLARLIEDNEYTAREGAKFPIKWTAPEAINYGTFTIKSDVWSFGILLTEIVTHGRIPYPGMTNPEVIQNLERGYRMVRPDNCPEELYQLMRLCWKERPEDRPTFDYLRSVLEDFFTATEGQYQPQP
Series [1] has as its system human umbilical vein endothelial cells (HUVEC). The series is described as follows: HUVEC proliferation assay (VEGF-stimulated, MTT). The note with it: Homo sapiens, HUVEC, Table 1. It counts as cell-based.
For series [2], the target named is unphosphorylated VEGF-R2Δ50 (Homo sapiens, UniProt P35968, DEL940-989/E990V). Briefly: biochemical. The note with it: read-out: FLVK ** (% inhibition).
unphosphorylated VEGF-R2Δ50, sequence (P35968 with tags, fused parts or gaps DEL940-989/E990V limits assumed): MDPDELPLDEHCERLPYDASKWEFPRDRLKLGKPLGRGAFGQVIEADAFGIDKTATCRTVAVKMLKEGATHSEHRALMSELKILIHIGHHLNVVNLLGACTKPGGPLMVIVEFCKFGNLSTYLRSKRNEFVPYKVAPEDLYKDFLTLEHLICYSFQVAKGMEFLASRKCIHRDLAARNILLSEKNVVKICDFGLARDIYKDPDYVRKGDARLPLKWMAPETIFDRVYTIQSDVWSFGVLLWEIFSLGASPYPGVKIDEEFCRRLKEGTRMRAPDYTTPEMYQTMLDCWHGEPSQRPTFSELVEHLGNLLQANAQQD
[3] abbreviates: read-out: CHK-1* (% inhibition @ 50 µM).
The mark [4] stands for this setting: Table 1, compound concentration 1 µM, read-out: FGF-P* (% inhibition).
The mark [5] stands for this setting: Table 1, compound concentration 1 µM, read-out: Lck-P* (% inhibition).
Where [6] appears, read: + albumin, read-out: HUVEC + albumin IC50.
[7] abbreviates: IP, 25 mg/kg, vehicle PEG400:H2O pH 2.3 30:70.
Setting [8] is: PO, 50 mg/kg, vehicle PEG400:H2O pH 2.3 30:70.

pIC50, pKi: −log10 of the molar value. Read-outs that look alike come from different tables or passages of the source.

human FGF-R1, sequence (P11362 456-766 L457V/C488A/C584S): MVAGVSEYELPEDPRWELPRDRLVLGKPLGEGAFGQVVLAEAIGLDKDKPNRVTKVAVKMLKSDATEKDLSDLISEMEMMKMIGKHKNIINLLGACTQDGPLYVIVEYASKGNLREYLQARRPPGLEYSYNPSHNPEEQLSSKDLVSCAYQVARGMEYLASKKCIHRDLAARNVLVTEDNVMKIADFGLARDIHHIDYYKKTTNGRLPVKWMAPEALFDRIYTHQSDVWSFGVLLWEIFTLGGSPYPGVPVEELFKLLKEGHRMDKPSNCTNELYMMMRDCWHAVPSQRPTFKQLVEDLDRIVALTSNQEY

Consider “3-(1H-benzoimidazol-2-yl)-N-(4-hydroxy-3-methylphenyl)-1H-indazole-6-carboxamide [Example 53(c)]”, for which the negative logarithm of the Ki (pKi) on human CHK1 (FL-CHK1) (Table 3; read-out: CHK-1* (Ki)) is 5.96.
On to `Oc1ccc(-c2ccc3c(-c4cc5ccccc5o4)n[nH]c3c2)cc1OCc1ccccc1` [2(e), 3-(Benzofuran-2-yl)-6-(3-benzyloxy-4-hydroxy-phenyl)-1H-indazole], for which the inhibition at 20 µM at human CHK1 (FL-CHK1) (read-out: CHK -1* (% inhibition @ 20 µM)) was determined as 5%.
As to `COCOc1ccc(Oc2ccc3c(/C=C/c4ccccc4)n[nH]c3c2)cc1` [8(b), 3-(E-styryl)-6-[4-(methoxymethoxy)phenoxy]-1H-indazole], the inhibition at 50 µM at human CHK1 (FL-CHK1) (setting [3]) came out at 12%.
As for `O=C(Nc1cccc(C(=O)c2ccc3c(/C=C/c4ccccc4)n[nH]c3c2)c1)c1ccncc1` [19(j), 6-[3-(pyridin-4-ylcarboxamido)benzoyl]-3-E-styryl-1H-indazole], the exposure (AUC) in “in vivo” (ip, 25 mg/kg) worked out at 23200 ng·h/mL; in the series “in vivo” (po, 50 mg/kg), 5890 ng·h/mL. The inhibition at 1 µM at human FGF-R1 (setting [4]) came out at 44%; at LCK tyrosine kinase (setting [5]) it was 23%. The remaining at 2 h, 5 µM in the series “in vitro” (read-out: % remain (HLM, 2 h)) was 66%. Besides, the T1/2 runs as follows: (IP, 25 mg/kg, vehicle PEG400:H2O pH 2.3 60:40) 1.6 h; (PO, 50 mg/kg, vehicle PEG400:H2O pH 2.3 60:40) 1.2 h. The pIC50 was 7.30 in series [1] (setting [6]) and 8.66 in series [1] (read-out: HUVEC IC50).
Turning to `CN(c1ccccc1)c1ccc2c(/C=C/c3ccccc3)n[nH]c2c1` [Example 14, Methyl-phenyl-(3-styryl-1H-indazol-6-yl)-amine], the inhibition at 25 µM at human CHK1 (FL-CHK1) (read-out: CHK -1* (% inhibition @ 25 µM)) was determined as 12%.
For `Cc1c(O)ccc(NC(=O)c2ccc3c(-c4nc5ccccc5[nH]4)n[nH]c3c2)c1C` [Example 53(d), 3-(1H-benzoimidazol-2-yl)-N-(4-hydroxy-2,3-dimethylphenyl)-1H-indazole-6-carboxamide], the “CHK-1* (inhibition @ 100 µM)” value on human CHK1 (FL-CHK1) (Table 3; @ 100 µM; NI = no significant inhibition) was “Nl @ 100 µM”.
With `CSc1cc(O)ccc1-c1ccc2c(-c3nc4ccccc4[nH]3)n[nH]c2c1` [Reference Example 24(k), 3-1H-Benzoimidazol-2-yl-6.(2-methylsulfanyl-4-hydroxyphenyl}-1H-indazole], the inhibition at 1 µM on human CHK1 (FL-CHK1) (read-out: CHK1* (% inhibition)) amounted to 81%; at LCK tyrosine kinase (read-out: Lck* (% inhibition)) it was 89%.
`COc1cc(O)ccc1-c1ccc2c(-c3nc4ccncc4[nH]3)n[nH]c2c1` [Reference Example 25(a), 3-(3H-Imidazo[4,5-c]pyridin-2-yl)-6-(4-hydroxy-2-methoxyphenyl)-1H-indazole]: the inhibition at 1 µM at human FGF-R1 (read-out: FGF* (% inhibition)) was 62%; at human CHK1 (FL-CHK1) (read-out: CHK1* (% inhibition)) it was 49%; on LCK tyrosine kinase (read-out: Lck* (% inhibition)), 44%.
For `COc1cc(O)ccc1-c1ccc2c(-c3nc4ccc(C(=O)NCCN5CCOCC5)cc4[nH]3)n[nH]c2c1` [Reference Example 25(b), 3-[6-(2-morpholin-4-yl-ethylcarbamoyl)-1H-benzoimidazol-2-yl]-6-(2-methoxy-4-hydroxyphenyl)-1H-indazole] the same measures were 87%, 83% and 87%.
As to `COc1cc(O)ccc1-c1ccc2c(-c3nc4ccc(N5CCN(C)CC5)cc4[nH]3)n[nH]c2c1` [Reference Example 25(c), 3-[6-(4-methylpiperazin-1-yl)-1H-benzoimidazol-2-yl]-6-(2-methoxy-4-hydroxyphenyl)-1H-indazole], the inhibition at 1 µM is 96% at human FGF-R1 (read-out: FGF* (% inhibition)) and 90% on human CHK1 (FL-CHK1) (read-out: CHK1* (% inhibition)).
With `COc1cc(O)ccc1-c1ccc2c(-c3nc4c(N5CCN(C)CC5)cccc4[nH]3)n[nH]c2c1` [Reference Example 25(d)], the inhibition at 1 µM on human FGF-R1 (read-out: FGF* (% inhibition)) was found to be 80%; at human CHK1 (FL-CHK1) (read-out: CHK1* (% inhibition)), 87%; on LCK tyrosine kinase (read-out: Lck* (% inhibition)), 60%.
As to `COc1cc(O)ccc1-c1ccc2c(-c3ncc[nH]3)n[nH]c2c1` [Reference Example 25(e), 3-imidazol-2-yl-6-(2-methoxy-4-hydroxyphenyl)-1H-indazole], the inhibition at 1 µM on human FGF-R1 (read-out: FGF* (% inhibition)) came out at 26%; on human CHK1 (FL-CHK1) (read-out: CHK1* (% inhibition)), 16%; on LCK tyrosine kinase (read-out: Lck* (% inhibition)), 13%.
For the compound `COc1cccc(-c2ccc3c(/C=C/c4ccccc4)n[nH]c3c2)c1` [Reference Example 27(b)], the inhibition at 50 µM at human CHK1 (FL-CHK1) (setting [3]) worked out at 28%.
As to `COc1ccc(-c2ccc3c(/C=C/c4ccccc4)n[nH]c3c2)cc1` [Reference Example 27(c)], on human CHK1 (FL-CHK1) (read-out: CHK-1* (% inhibition @ 5 µM)), the inhibition at 5 µM was 11%.
On to `C(=C\c1n[nH]c2cc(-c3cccc4ccccc34)ccc12)/c1ccccc1` [Reference Example 27(d)], for which the inhibition at 10 µM on human CHK1 (FL-CHK1) (read-out: CHK-1* (% inhibition @ 10 µM)) is 14%.
Regarding `COc1ccc(-c2ccc3c(/C=C/c4ccccc4)n[nH]c3c2)cc1OC` [Reference Example 27(j)], the inhibition at 50 µM on human CHK1 (FL-CHK1) (setting [3]) was determined as 15%.
Consider `Clc1cccc(Cl)c1/C=C/c1n[nH]c2cc(-c3ccncc3)ccc12` [Reference Example 29(a), 6-pyrid-4-yl-3-E-[2-(2,6-dichlorophenyl)ethenyl]-1H-indazole], for which, on human CHK1 (FL-CHK1) (Table 3; @ 25µM; NI = no significant inhibition), the “CHK-1* (inhibition @ 25 µM)” value was “Nl @ 25µM”.
Consider `Fc1ccc(F)c(/C=C/c2n[nH]c3cc(-c4ccncc4)ccc23)c1` [Reference Example 29(s), 6-pyrid-4-yl-3-E-[2-(2,5-difluorophenyl)ethenyl]-1H-indazole], for which the pKi at human CHK1 (FL-CHK1) (read-out: CHK-1* (Ki); Table 3) was 4.96.
With `CCn1nc(C)cc1C(=O)Nc1cccc(Oc2ccc3c(/C=C/c4cn(C)c(C)n4)n[nH]c3c2)c1` [Reference Example 31(f), 6-[3-((1-Ethyl-3-methyl-1H-pyrazol-5-yl)carboxamido)phenoxy]-3-E-[2-(1,2-dimethyl-1H-imidazol-4-yl)ethenyl]-1H-indazole], the exposure (AUC) in “in vivo” (po, 25 mg/kg) was > 245000 ng·h/mL. Further, the inhibition at 1 µM came to 99% on human FGF-R1 (setting [4]) and 62% on LCK tyrosine kinase (setting [5]). The inhibition at 0.05 µM in series [2] was 97%. The same compound registered a T1/2 (PO, 25 mg/kg, vehicle PEG400:H2O pH 2.3 30:70) of 2.6 h. For the same compound, in series [1] (setting [6]), the pIC50 is < 8.00.
For the compound `O=C(Nc1ccccc1)c1ccccc1Sc1ccc2c(/C=C/c3ccccn3)n[nH]c2c1` [Reference Example 33(c), 6-[2-(phenylcarbamoyl)phenylsulfanyl]-3-E-[2-(pyrldin-2-yl)ethenyl]-1H-indazole], the AUC in the series “in vivo” (ip, 25 mg/kg) was determined as 697 ng·h/mL; in the series “in vivo” (po, 50 mg/kg) it was 183 ng·h/mL. Also, the figures for the inhibition at 1 µM on human FGF-R1 (setting [4]) and on LCK tyrosine kinase (setting [5]) were 76% and 26%, respectively. Besides, the “% remain (HLM, 2 h)” value in “in vitro” was found to be 16%. Further, the “Cmin (7 hr conc.)” value is 7 ng/mL under setting [7] and 5 ng/mL under setting [8]. The same compound came in with a T1/2 under setting [7] of 1.2 h and a T1/2 under setting [8] of 3.0 h. For the same compound, the pIC50 in series [1] (setting [6]) is 8.18.
Regarding `O=C(c1cccc(NC(=O)c2ccc(Cl)s2)c1)c1ccc2c(/C=C/c3ccccn3)n[nH]c2c1` [Reference Example 41(o), 6-[3-((5-chlorothien-2-yl)carboxamido)benzoyl]-3-E-[2-(pyridin-2-yl)ethenyl]-1H-indazole], in “in vivo” (ip, 25 mg/kg), the exposure (AUC) was > 33800 ng·h/mL. For the same compound, the inhibition at 1 µM on human FGF-R1 (setting [4]) stood at 74%; at LCK tyrosine kinase (setting [5]), 77%. In addition, the “% remain (HLM, 2 h)” value in the series “in vitro” worked out at 94%. In series [1] (setting [6]), the negative logarithm of the IC50 (pIC50) is 8.00.
